Paper PMC3914206

Columns and labels:
Format in all cases: binding
Set-up in all cases: KINOMEscan: ABL1(F317L)-phosphorylated / KINOMEscan: ABL1(H396P)-nonphosphorylated / KINOMEscan: ABL1(H396P)-phosphorylated / KINOMEscan: ABL1(M351T)-phosphorylated / KINOMEscan: ABL1(T315I)-phosphorylated / KINOMEscan: ABL1-nonphosphorylated / KINOMEscan: ABL1-phosphorylated / KINOMEscan: ACVR2A / KINOMEscan: ACVR2B / KINOMEscan: ADCK3 / KINOMEscan: ADCK4 / KINOMEscan: AKT1 / KINOMEscan: AKT3 / KINOMEscan: ALK / KINOMEscan: ARK5 / KINOMEscan: AURKA / KINOMEscan: AURKC / KINOMEscan: BIKE / KINOMEscan: BMPR1A / KINOMEscan: BMPR1B / KINOMEscan: BMX / KINOMEscan: BRK / KINOMEscan: BRSK1 / KINOMEscan: BRSK2 / KINOMEscan: CAMK1 / KINOMEscan: CAMK1D / KINOMEscan: CAMK1G / KINOMEscan: CAMK2A / KINOMEscan: CAMK2B / KINOMEscan: AAK1 / KINOMEscan: CAMK2D / KINOMEscan: CAMK2G / KINOMEscan: ABL1(F317I)-nonphosphorylated / KINOMEscan: ABL1(F317I)-phosphorylated / KINOMEscan: ABL1(F317L)-nonphosphorylated: unit: % Ctrl
Settings in all cases: Compound Concentration 10 µM
panel of 442 kinases [1] = biological target: T1, panel of 442 kinases (Homo sapiens, UniProt O14757)
T1 construct: purchased KINOMEscan
T1 sequence (O14757 1-476): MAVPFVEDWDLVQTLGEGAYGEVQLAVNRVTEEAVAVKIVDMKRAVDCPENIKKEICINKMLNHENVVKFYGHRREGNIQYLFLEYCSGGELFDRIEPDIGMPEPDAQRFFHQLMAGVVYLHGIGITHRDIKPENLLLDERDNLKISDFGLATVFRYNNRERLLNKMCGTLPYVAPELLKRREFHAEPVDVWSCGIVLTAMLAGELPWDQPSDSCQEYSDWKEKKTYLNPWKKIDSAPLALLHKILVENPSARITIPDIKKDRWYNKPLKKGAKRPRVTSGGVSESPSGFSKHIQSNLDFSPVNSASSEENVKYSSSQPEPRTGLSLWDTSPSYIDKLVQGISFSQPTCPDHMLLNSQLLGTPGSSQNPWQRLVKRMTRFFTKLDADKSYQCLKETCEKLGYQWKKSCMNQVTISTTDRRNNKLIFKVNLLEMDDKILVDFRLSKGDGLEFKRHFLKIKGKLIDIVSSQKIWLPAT
From the text: (§1) We assessed the selectivity of members of this scaffold using the KINOMEscan methodology across a near comprehensive panel of 442 kinases [[18,27]].

panel of 442 kinases [2] = biological target: T2, panel of 442 kinases (Homo sapiens, UniProt Q96D53)
T2 construct: purchased KINOMEscan
T2 sequence (Q96D53 1-544): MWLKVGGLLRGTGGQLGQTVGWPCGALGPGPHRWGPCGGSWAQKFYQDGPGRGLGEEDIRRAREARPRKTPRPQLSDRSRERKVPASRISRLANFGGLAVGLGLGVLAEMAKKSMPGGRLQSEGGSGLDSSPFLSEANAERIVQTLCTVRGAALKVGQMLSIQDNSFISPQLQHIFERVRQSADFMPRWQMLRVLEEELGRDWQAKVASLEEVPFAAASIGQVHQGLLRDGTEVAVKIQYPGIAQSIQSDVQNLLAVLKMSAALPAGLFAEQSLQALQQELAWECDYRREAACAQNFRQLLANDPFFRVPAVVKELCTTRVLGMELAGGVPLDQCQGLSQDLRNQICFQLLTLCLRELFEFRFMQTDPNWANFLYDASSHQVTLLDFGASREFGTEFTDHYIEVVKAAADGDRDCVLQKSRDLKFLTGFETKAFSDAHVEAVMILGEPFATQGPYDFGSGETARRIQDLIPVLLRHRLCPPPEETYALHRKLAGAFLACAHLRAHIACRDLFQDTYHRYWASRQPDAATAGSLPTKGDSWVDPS
From the text: as §1

panel of 442 kinases [3] = biological target: T3, panel of 442 kinases (Homo sapiens, UniProt Q9UQM7)
T3 construct: purchased KINOMEscan
T3 sequence (Q9UQM7 whole entry): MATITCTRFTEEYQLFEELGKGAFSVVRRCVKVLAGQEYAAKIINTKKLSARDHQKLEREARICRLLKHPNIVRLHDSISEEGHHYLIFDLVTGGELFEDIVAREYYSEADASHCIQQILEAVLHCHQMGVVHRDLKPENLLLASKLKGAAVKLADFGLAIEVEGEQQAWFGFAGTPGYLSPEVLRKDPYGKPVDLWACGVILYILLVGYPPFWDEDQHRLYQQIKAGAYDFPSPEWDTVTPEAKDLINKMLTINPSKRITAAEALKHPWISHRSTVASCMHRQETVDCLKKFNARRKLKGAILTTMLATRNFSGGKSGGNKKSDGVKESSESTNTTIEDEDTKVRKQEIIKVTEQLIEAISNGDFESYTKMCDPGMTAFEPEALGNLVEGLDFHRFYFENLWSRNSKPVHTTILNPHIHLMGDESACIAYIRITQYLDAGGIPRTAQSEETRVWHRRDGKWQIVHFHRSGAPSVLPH
From the text: as §1

In the case of `COc1cc(C(=O)N2CCC(N3CCN(C)CC3)CC2)ccc1Nc1ncc2c(n1)N(C)c1ccccc1C(=O)N2C` [15 (LRRK2-IN-1)], the “KINOMEscan: CHEK1” value (panel of 442 kinases [1]) is reported as 100, the “KINOMEscan: ADCK4” value (panel of 442 kinases [2]) is reported as 94 and the “KINOMEscan: CAMK2A” value (panel of 442 kinases [3]) is reported as 21.

`COc1cc(C(=O)N2CCC(N3CCN(C)CC3)CC2)ccc1Nc1ncc2c(n1)N1CCc3cccc(c31)C(=O)N2C` [Compound 24] was tested, and the “KINOMEscan: CHEK1” value (panel of 442 kinases [1]) was 85, the “KINOMEscan: ADCK4” value (panel of 442 kinases [2]) was 81 and the “KINOMEscan: CAMK2A” value (panel of 442 kinases [3]) was 44.

`COc1cc(C(=O)N2CCC(N3CCN(C)CC3)CC2)ccc1Nc1ncc2c(n1)N(C1CCCC1)c1ccccc1C(=O)N2C` [Compound 25, 11-cyclopentyl-2-((2-methoxy-4-(4-(4-methylpiperazin-1-yl)piperidine-1-carbonyl)phenyl)amino)-5-methyl-5H-benzo[e]pyrimido[5,4-b][1,4]diazepin-6(11H)-one] was tested, and the “KINOMEscan: CHEK1” value (panel of 442 kinases [1]) was 100, the “KINOMEscan: ADCK4” value (panel of 442 kinases [2]) was 92 and the “KINOMEscan: CAMK2A” value (panel of 442 kinases [3]) was 81.

`CCOc1cc(C(=O)N2CCC(N3CCN(C)CC3)CC2)ccc1Nc1ncc2c(n1)N(C1CCCC1)c1ccccc1C(=O)N2C` [Compound 26] was tested, and the “KINOMEscan: CHEK1” value (panel of 442 kinases [1]) was 100, the “KINOMEscan: ADCK4” value (panel of 442 kinases [2]) was 100 and the “KINOMEscan: CAMK2A” value (panel of 442 kinases [3]) was 100.
